Data published in BindingDB's records for doi:10.1016/j.bmcl.2013.05.031 (Second Military Medical University, 2013).

Each molecule was assayed against Acrosin (Homo sapiens, UniProt P10323) (assay: Inhibition of human sperm acrosin using BAPNA as substrate after 3 hrs by spectrophotometric analysis).
Chain of Acrosin (P10323 20-42 limits assumed): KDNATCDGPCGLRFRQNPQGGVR
Chain of Acrosin (P10323 43-343 limits assumed): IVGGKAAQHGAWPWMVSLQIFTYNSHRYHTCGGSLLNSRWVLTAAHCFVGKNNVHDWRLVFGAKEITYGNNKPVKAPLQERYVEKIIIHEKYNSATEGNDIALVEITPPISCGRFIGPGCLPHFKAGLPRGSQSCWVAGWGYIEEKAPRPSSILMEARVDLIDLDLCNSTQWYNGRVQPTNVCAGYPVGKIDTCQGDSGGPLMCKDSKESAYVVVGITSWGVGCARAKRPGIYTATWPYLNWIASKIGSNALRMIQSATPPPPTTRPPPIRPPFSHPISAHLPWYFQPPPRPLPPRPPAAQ
`O=C(NCCCO)c1cc(-c2ccccc2)[nH]n1` gave an IC50 of 0.54 mM.
`CC(C)(CO)NC(=O)c1cc(-c2ccc([N+](=O)[O-])cc2)n[nH]1` showed an IC50 of 1.87 mM.
In the case of `O=C(NC(CO)(CO)CO)c1cc(-c2ccccc2)n[nH]1`, the IC50 is reported as 0.94 mM.
With `O=C(NCCCO)c1cc(-c2cccc([N+](=O)[O-])c2)[nH]n1` the IC50 was 0.78 mM.
With `CC(O)CNC(=O)c1cc(-c2cccc([N+](=O)[O-])c2)n[nH]1` (stereo not drawn) the IC50 was 1.83 mM.
For `CC(O)CNC(=O)c1cc(-c2ccc(Br)cc2)n[nH]1` (stereo not drawn), the IC50 was 0.33 mM.
Molecule `O=Cc1cc(-c2ccc(Cl)cc2Cl)on1` has an IC50 of 0.39 mM.
`O=C(c1cc(-c2ccc([N+](=O)[O-])cc2)n[nH]1)N(CCO)CCO` gave an IC50 of 5.6 mM.
With `COc1ccc(-c2cc(C(=O)NCCOCCO)[nH]n2)cc1` the IC50 was 6.02 mM.
With `CC(O)CN(CC(C)O)C(=O)c1cc(-c2ccccc2)[nH]n1` (stereo not drawn) the IC50 was 0.01 mM.
Work on `O=C(c1cc(-c2ccccc2)[nH]n1)N(CCO)CCO` yielded an IC50 of 1.7 mM.
In the case of `O=C(NCCCO)c1cc(-c2ccc(Br)cc2)[nH]n1`, the IC50 is reported as 0.38 mM.
For `CC(O)CNC(=O)c1cc(-c2ccccc2)[nH]n1` (stereo not drawn), the IC50 was 0.06 mM.
`CC(CO)NC(=O)c1cc(-c2ccccc2)[nH]n1` (stereo not drawn) was tested, and the IC50 was 3 mM.
`CC(CO)NC(=O)c1cc(-c2ccc(Br)cc2)n[nH]1` (stereo not drawn) was tested, and the IC50 was 0.88 mM.
`O=C(NCCCO)c1cc(-c2ccc([N+](=O)[O-])cc2)[nH]n1` gave an IC50 of 3.07 mM.
With `O=C(NCCOCCO)c1cc(-c2ccc(Br)cc2)[nH]n1` the IC50 was 10 mM.
`O=C(NCCOCCO)c1cc(-c2cccc([N+](=O)[O-])c2)n[nH]1` was tested, and the IC50 was 9.1 mM.
Work on `O=C(NCCO)c1cc(-c2ccc(Br)cc2)[nH]n1` yielded an IC50 of 0.53 mM.
Molecule `CN(CCO)C(=O)c1cc(-c2ccc([N+](=O)[O-])cc2)n[nH]1` has an IC50 of 2 mM.
Molecule `CN(CCO)C(=O)c1cc(-c2cccc([N+](=O)[O-])c2)n[nH]1` has an IC50 of 0.79 mM.
Molecule `COc1ccc(-c2cc(C(=O)N(C)CCO)n[nH]2)cc1` has an IC50 of 0.41 mM.
For `O=C(c1cc(-c2cccc([N+](=O)[O-])c2)n[nH]1)N(CCO)CCO`, the IC50 was 2.4 mM.
With `COc1ccc(-c2cc(C(=O)NCCO)[nH]n2)cc1` the IC50 was 0.09 mM.
With `CC(O)CNC(=O)c1cc(-c2ccc([N+](=O)[O-])cc2)[nH]n1` (stereo not drawn) the IC50 was 2.95 mM.
`O=C(NC(CO)(CO)CO)c1cc(-c2cccc([N+](=O)[O-])c2)[nH]n1` was tested, and the IC50 was 0.76 mM.
`O=C(NCCO)c1cc(-c2ccccc2)n[nH]1` gave an IC50 of 2.8 mM.
In the case of `O=C(NCCOCCO)c1cc(-c2ccc([N+](=O)[O-])cc2)n[nH]1`, the IC50 is reported as 2.07 mM.
`O=C(NCCO)c1cc(-c2ccc([N+](=O)[O-])cc2)n[nH]1` was tested, and the IC50 was 2.7 mM.
`CC(O)CN(CC(C)O)C(=O)c1cc(-c2ccc([N+](=O)[O-])cc2)n[nH]1` (stereo not drawn) showed an IC50 of 1.21 mM.
In the case of `O=C(c1cc(-c2ccc(Br)cc2)n[nH]1)N(CCO)CCO`, the IC50 is reported as 1.52 mM.
Work on `O=C(NCCO)c1cc(-c2cccc([N+](=O)[O-])c2)[nH]n1` yielded an IC50 of 0.76 mM.
With `O=C(NC(CO)(CO)CO)c1cc(-c2ccc([N+](=O)[O-])cc2)[nH]n1` the IC50 was 5.22 mM.
